Source: article PMC9696794, “Synthesis and Antimicrobial Activity of Short Analogues of the Marine Antimicrobial Peptide Turgencin A: Effects of SAR Optimizations, Cys-Cys Cyclization and Lipopeptide Modifications” (International Journal of Molecular Sciences, 2022)
Values after ≈ are worked out from the molar mass of the structure shown. Where a SMILES comes first, the peptide text is derived from it. Bridges are numbered along the chain shown (N, C = ends). The star is where a group is joined. Lauroyl = CCCCCCCCCCCC(=O)*; Decanoyl = CCCCCCCCCC(=O)*

Legend:
[1] = system: Gram-positive bacterial strains; conditions: Table S3; MIC >256 set to 256
Outline: (§1)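 Cultures grown in Mueller–Hinton broth were adjusted by OD600 to 2.5–3 × 10^4 CFU/mL and mixed with two-fold peptide dilutions from 256 to 1 µg/mL. Plates were incubated at 35 °C with OD595 monitored every hour for 24 h.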

[2] = system: P. aeruginosa (Pa, ATCC 27853); test: microbe, parasite or virus in culture; assay type: cell-based, Pseudomonas aeruginosa; conditions: ATCC 27853, 24 h
Outline: as §1

[3] = system: Gram-negative bacterial strains (E. coli and P. aeruginosa); test: Antibacterial MIC assay, Gram-negative strains together (range or geometric mean); assay type: cell-based; conditions: Table S3; MIC >256 set to 256
Outline: as §1

[4] = system: fungi (A. pullulans, C. albicans, Rhodotorula sp.); test: Antifungal MIC assay, all fungi together (range or geometric mean); assay type: cell-based; conditions: Table S3; MIC >128 set to 128
Outline: (§2)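 Overnight cultures in potato dextrose broth with 2% glucose at 25–30 °C were diluted to approx. 4 × 10^5 spores/mL and mixed 1:1 with two-fold peptide dilutions plated at 256 to 1 µg/mL. After 48 h at room temperature, OD600 was read. MIC was the lowest concentration giving OD below 10% of the growth control, in triplicate.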

[5] = system: C. albicans (Ca, ATCC 10231); test: microbe, parasite or virus in culture; assay type: cell-based, Candida albicans; conditions: ATCC 10231, 48 h
Outline: as §2

[6] = system: E. coli NR698 (outer membrane permeable mutant, imp4213); test: microbe, parasite or virus in culture; conditions: MC4100 NR698 imp4213, deficient outer membrane
Method: (§3) All cyclic and linear peptides were screened for antibacterial activity against four Gram-positive strains: B. subtilis (Bs, ATCC 23857), C. glutamicum (Cg, ATCC 13032), S. aureus (Sa, ATCC 9144) and S. epidermidis RP62A (Se, ATCC 35984), and two Gram-negative strains: E. coli (Ec, ATCC 25922) and P. aeruginosa (Pa, ATCC 27853). The activity was assessed using a broth microdilution assay according to a modified CLSI-based method. Briefly, overnight bacterial cultures were grown in Mueller–Hinton (MH) broth medium (Difco Laboratories, Detroit, MI, USA) for 2 h at room temperature. The optical density (OD600) was measured, and the bacterial suspensions were adjusted to 2.5–3 × 10^4 CFU/mL in MH medium. The bacterial suspension (50 µL) was distributed in 96-well plates (Nunc, Roskilde, Denmark) preloaded with two-fold dilution series (256 to 1 µg/mL) of peptide solutions (50 µL), giving a final well volume of 100 µL. The microplates were incubated in an EnVision 2103 microplate reader (PerkinElmer, Llantrisant, UK) at 35 °C, with OD595 recorded every hour for 24 h. MIC was defined as the lowest concentration of peptides showing an optical density less than 10% of the negative (growth) control, consisting of bacterial suspension and water. Polymyxin B sulfate (Sigma-Aldrich, St. Louis, MO, USA) and chlorhexidine acetate (CHX, Fresenius Kabi, Halden, Norway), both with concentrations ranging from 12.5 to 0.09 μg/mL, served as positive (growth inhibition) controls. All peptides were tested in triplicate.
(§4) MIC values were determined for all cyclic peptides against two E. coli strains: wild type (WT) MC4100 and the hyperpermeable variant NR698, having a deficient outer membrane. The NR698 strain, containing lptD4213/imp4213 mutation, was kindly provided by M. Grabowicz (Emory University School of Medicine, Rollins Research Center, Atlanta, GA, USA). The assay was performed in the same way as previously described for the antibacterial MIC assay.

[7] = system: E. coli MC4100 (wild type, WT); test: microbe, parasite or virus in culture; conditions: wild type
Method: as §3, §4

A. pullulans (Ap) = test: microbe, parasite or virus in culture; assay type: cell-based, Aurobasidium pollulans; conditions: 48 h
Outline: as §2

E. coli (Ec, ATCC 25922) = test: microbe, parasite or virus in culture; assay type: cell-based, Escherichia coli; conditions: ATCC 25922, 24 h
Outline: as §1

Rhodotorula sp. (Rh) = test: microbe, parasite or virus in culture; assay type: cell-based; conditions: 48 h
Outline: as §2

[8] = system: S. aureus (Sa, ATCC 9144); test: microbe, parasite or virus in culture; assay type: cell-based, Staphylococcus aureus; conditions: ATCC 9144, 24 h
Outline: as §1

[9] = system: C. glutamicum (Cg, ATCC 13032); test: microbe, parasite or virus in culture; assay type: cell-based, Corynebacterium glutamicum; conditions: ATCC 13032, 24 h
Outline: as §1

[10] = system: S. epidermidis RP62A (Se, ATCC 35984); test: microbe, parasite or virus in culture; assay type: cell-based, Staphylococcus epidermidis; conditions: ATCC 35984, 24 h
Outline: as §1

all bacterial strains = test: Antibacterial MIC assay, all bacterial strains together (range or geometric mean); assay type: cell-based; conditions: for GM (geometric mean of the MIC values against all bacterial strains): Table 1, six bacterial strains; for GM of MIC Tot. bact.: Table S3, all bacterial test strains, MIC >256 set to 256
Outline: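 Broth microdilution in Mueller–Hinton broth against B. subtilis, C. glutamicum, S. aureus, S. epidermidis RP62A, E. coli and P. aeruginosa; inoculum 2.5–3 × 10^4 CFU/mL, 35 °C, OD595 read hourly for 24 h. MIC: lowest peptide concentration giving OD below 10% of growth control; geometric mean across strains, triplicate.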

[11] = system: human red blood cells (RBC); test: Haemolytic activity assay; assay type: cell-based; conditions: for Selectivity index (SI) G-: EC50/GM of Gram-negative strains; for Selectivity index (SI) G+: EC50/GM of Gram-positive strains; for SI (selectivity index = EC50/GM): haemolytic EC50 over GM of MIC against all bacterial strains, Table 1; for RBC Tox. (EC50), haemolytic activity: human RBC, 1 h, 37 °C, concentration giving 50% haemolysis; for Selectivity index (SI) Fungi: EC50/GM of fungi
Outline: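 Washed human erythrocytes (1% hematocrit final) incubated 1 h at 37 °C with agitation with lipopeptides at 500–3.9 μM in PBS (≤1% DMSO), duplicates. Haemoglobin release read at 545 nm relative to 0.1% Triton X-100; EC50 is 50% haemolysis, averaged from three experiments.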

[12] = system: B. subtilis (Bs, ATCC 23857); test: microbe, parasite or virus in culture; assay type: cell-based, Bacillus subtilis; conditions: ATCC 23857, 24 h
Outline: as §1

[13] = Table S3, highest tested concentration used where EC50 above it

Structure (SMILES)	GM of MIC G+ [1] [µg/mL]	Antimicrobial Activity (MIC) Gram − Pa [2] [µg/mL]	GM of MIC G- [3] [µg/mL]	GM of MIC Fungi [4] [µg/mL]	Antimicrobial Activity (MIC) Fungi Ca [5] [µg/mL]	MIC E. coli NR698 (mutant) [6] [µg/mL]	MIC E. coli MC4100 (WT) [7] [µg/mL]	Antimicrobial Activity (MIC) Fungi Ap (A. pullulans (Ap)) [µg/mL]	Antimicrobial Activity (MIC) Gram − Ec (E. coli (Ec, ATCC 25922)) [µg/mL]	Antimicrobial Activity (MIC) Fungi Rh (Rhodotorula sp. (Rh)) [µg/mL]	Antimicrobial Activity (MIC) Gram + Sa [8] [µg/mL]	Antimicrobial Activity (MIC) Gram + Cg [9] [µg/mL]	Antimicrobial Activity (MIC) Gram + Se [10] [µg/mL]	GM (geometric mean of the MIC values against all bacterial strains) (all bacterial strains) [µg/mL]	GM of MIC Tot. bact. (all bacterial strains) [µg/mL]	Selectivity index (SI) G- [11, 13]	Selectivity index (SI) G+ [11, 13]	SI (selectivity index = EC50/GM) [11]	RBC Tox. (EC50), haemolytic activity [11] [µg/mL]	Antimicrobial Activity (MIC) Gram + Bs [12] [µg/mL]	other results
CCCCCCCCCC(=O)N[C@H]1CSSC[C@@H](C(=O)N[C@@H](CCCNC(=N)N)C(=O)N[C@@H](CC(C)C)C(N)=O)NC(=O)[C@H](CCCNC(=N)N)NC(=O)[C@H](Cc2c[nH]c3ccccc23)NC(=O)[C@H](Cc2c[nH]c3ccccc23)NC(=O)CNC(=O)[C@H](Cc2c[nH]c3ccccc23)NC(=O)[C@H](CCCNC(=N)N)NC(=O)[C@H](CCCNC(=N)N)NC(=O)CNC1=O [Peptide C10-cTurg-6, C10- (CGRRWGWWRC)RL-NH2] (Decanoyl-CGRRWGWWRCRL-NH2; disulfide 1-10)	6	16	16	51	64	8 (≈ 4.48 µM)	8 (≈ 4.48 µM)	64	16	32	8	4	8	8	8	1	3	2	16	4	
CCCCCCCCCCCC(=O)N[C@H]1CSSC[C@@H](C(=O)N[C@@H](CCCCN)C(=O)N[C@@H](CC(C)C)C(N)=O)NC(=O)[C@H](CCCCN)NC(=O)[C@H](Cc2c[nH]c3ccccc23)NC(=O)CNC(=O)[C@H](Cc2c[nH]c3ccccc23)NC(=O)[C@H](Cc2c[nH]c3ccccc23)NC(=O)[C@H](CCCCN)NC(=O)[C@H](CCCCN)NC(=O)CNC1=O [Peptide C12-cTurg-2, C12- (CGKKWWGWKC)KL-NH2] (Lauroyl-CGKKWWGWKCKL-NH2; disulfide 1-10)	7	16	16	40	64	8 (≈ 4.7 µM)	8 (≈ 4.7 µM)	32	16	32	8	8	8	9	9	2	5	4	32	4	Selectivity index (SI) Fungi [11, 13]: 1
CCCCCCCCCCCC(=O)N[C@H]1CSSC[C@@H](C(=O)N[C@@H](CCCNC(=N)N)C(=O)N[C@@H](CC(C)C)C(N)=O)NC(=O)[C@H](CCCNC(=N)N)NC(=O)[C@H](Cc2c[nH]c3ccccc23)NC(=O)[C@H](Cc2c[nH]c3ccccc23)NC(=O)CNC(=O)[C@H](Cc2c[nH]c3ccccc23)NC(=O)[C@H](CCCNC(=N)N)NC(=O)[C@H](CCCNC(=N)N)NC(=O)CNC1=O [Peptide C12-cTurg-6, C12- (CGRRWGWWRC)RL-NH2] (Lauroyl-CGRRWGWWRCRL-NH2; disulfide 1-10)	10	32	32	81	128	16 (≈ 8.82 µM)	16 (≈ 8.82 µM)	64	32	64	16	8	8	14	14		1		9	8	Selectivity index (SI) Tot. bact. ([11]; Table S3, EC50/GM of all bacterial strains, highest tested concentration used where EC50 above it): 1
CC(C)C[C@H](NC(=O)[C@H](CCCCN)NC(=O)[C@@H]1CSSC[C@H](N)C(=O)NCC(=O)N[C@@H](CCCCN)C(=O)N[C@@H](CCCCN)C(=O)N[C@@H](Cc2c[nH]c3ccccc23)C(=O)N[C@@H](Cc2c[nH]c3ccccc23)C(=O)NCC(=O)N[C@@H](Cc2c[nH]c3ccccc23)C(=O)N[C@@H](CCCCN)C(=O)N1)C(N)=O [cTurg-2] (H-CGKKWWGWKCKL-NH2; disulfide 1-10; N-terminus assumed)	11	64	64	32	32	8 (≈ 5.26 µM)	16 (≈ 10.5 µM)	32	64	32	32	4	16	20	20	> 16	> 92	>52	>1045	8	Selectivity index (SI) Fungi [11, 13]: > 33
